Data reported in US20250368648A1, “MULTI-CYCLIC IRAK AND FLT3 INHIBITING COMPOUNDS AND USES THEREOF” (CHILDREN'S HOSPITAL MEDICAL CENTER, priority 2022, published 2025).

Legend:
[1] = molecular target: T1, FLT3 K663Q (Homo sapiens, UniProt P36888, K663Q); experiment: DiscoverX KINOMEscan competition binding, FLT3 K663Q; settings: no ATP
T1 construct: purchased DiscoverX (KINOMEscan); host or cells: E. coli (T7 phage) or HEK-293
T1 sequence (P36888 27-993 K663Q): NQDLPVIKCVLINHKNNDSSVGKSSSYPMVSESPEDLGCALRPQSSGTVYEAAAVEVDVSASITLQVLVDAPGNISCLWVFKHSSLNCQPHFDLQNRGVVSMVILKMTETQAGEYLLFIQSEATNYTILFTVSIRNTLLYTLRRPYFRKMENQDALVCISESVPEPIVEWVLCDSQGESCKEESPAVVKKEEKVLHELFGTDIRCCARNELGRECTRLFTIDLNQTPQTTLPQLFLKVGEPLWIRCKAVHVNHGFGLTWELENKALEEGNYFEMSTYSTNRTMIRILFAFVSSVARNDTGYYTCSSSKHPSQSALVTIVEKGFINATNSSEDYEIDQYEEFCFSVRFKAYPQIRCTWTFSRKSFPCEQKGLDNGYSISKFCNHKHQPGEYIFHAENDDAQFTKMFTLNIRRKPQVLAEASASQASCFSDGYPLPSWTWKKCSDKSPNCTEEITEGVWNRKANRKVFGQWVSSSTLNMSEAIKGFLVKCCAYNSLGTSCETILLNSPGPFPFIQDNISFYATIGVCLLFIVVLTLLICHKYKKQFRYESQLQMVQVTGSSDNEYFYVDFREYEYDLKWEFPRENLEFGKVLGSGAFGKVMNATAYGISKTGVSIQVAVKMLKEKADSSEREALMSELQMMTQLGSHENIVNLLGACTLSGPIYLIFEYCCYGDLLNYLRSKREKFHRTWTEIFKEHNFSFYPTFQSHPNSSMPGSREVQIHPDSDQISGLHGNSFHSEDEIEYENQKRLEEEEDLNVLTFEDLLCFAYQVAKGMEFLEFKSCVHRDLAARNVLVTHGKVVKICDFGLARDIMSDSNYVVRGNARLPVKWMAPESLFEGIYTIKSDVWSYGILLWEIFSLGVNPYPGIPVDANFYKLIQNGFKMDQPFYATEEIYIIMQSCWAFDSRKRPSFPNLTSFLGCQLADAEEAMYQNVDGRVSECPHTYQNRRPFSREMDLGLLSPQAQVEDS
Excerpt: (§1) Kinase binding data were obtained for various exemplary compounds prepared according to Examples 2-15 using the DiscoverX KINOMEscan® active site-directed competition binding site-directed assay protocol described below. […] As a result, the data report thermodynamic interaction affinities (Kd values), rather than IC50 values that are dependent on ATP concentrations. The assay uses a DNA-tagged version of the protein kinase, and an immobilized ligand bound to a solid support. Compounds that directly or indirectly prevent kinase binding to the immobilized ligand reduce the amount of kinase captured on the solid support, which is detected using an ultra-sensitive qPCR method. Affinity constants reported from the assay have been reported to be independent of the immobilized ligand used that is coupled to the solid support (See supplemental information in Fabian, M. A. et. al., (2005) Nat. […] Wodicka, L. […] Biol. 17, 1241-1249.) Kinase-tagged T7 phage strains were prepared in an E. coli host derived from the BL21 strain. E. coli were grown to log-phase and infected with T7 phage and incubated with shaking at 32° C. until lysis. […] Kds were determined using an 11-point 3-fold compound dilution series with three DMSO control points. […] The kinase concentration in the eluates was measured by qPCR. Binding constants (Kds) were calculated with a standard dose-response curve using the Hill equation. […]

[2] = molecular target: T2, FLT3 Autoinh. (Homo sapiens, UniProt P36888); experiment: DiscoverX KINOMEscan competition binding, FLT3 Autoinh.; settings: no ATP
T2 construct: purchased DiscoverX (KINOMEscan); host or cells: E. coli (T7 phage) or HEK-293
T2 sequence (P36888 564-993 limits assumed): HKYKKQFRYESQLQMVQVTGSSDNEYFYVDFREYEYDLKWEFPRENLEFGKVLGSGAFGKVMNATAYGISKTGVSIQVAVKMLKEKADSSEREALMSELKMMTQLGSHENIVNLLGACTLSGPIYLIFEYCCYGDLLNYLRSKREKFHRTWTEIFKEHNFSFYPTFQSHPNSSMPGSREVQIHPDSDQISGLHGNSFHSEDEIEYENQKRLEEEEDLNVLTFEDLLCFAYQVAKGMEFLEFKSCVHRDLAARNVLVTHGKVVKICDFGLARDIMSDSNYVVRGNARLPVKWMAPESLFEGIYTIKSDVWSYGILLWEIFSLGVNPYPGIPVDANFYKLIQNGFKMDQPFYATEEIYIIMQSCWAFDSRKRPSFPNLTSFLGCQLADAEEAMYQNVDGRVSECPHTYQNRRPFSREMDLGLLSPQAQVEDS
Excerpt: as §1

COc1cc2ncc(-c3nc(N[C@H]4CNCC[C@@H]4F)c(F)cc3F)n2nc1C1CCC1 [Compound 15a, 6-(6-cyclobutyl-7-methoxyimidazo[1,2-b]pyridazin-3-yl)-3,5-difluoro-N-((3S,4S)-4-fluoropiperidin-3-yl)pyridin-2-amine]
Kd [1]: 0.62 nM
Kd [2]: 5.8 nM
